The assay deals with TNF-α (Homo sapiens, UniProt P01375). Put plainly: TNF-α Induced HEK Blue Cellular Assay. In kind it is cell-based. The following applies: HEK Blue TNFα reporter cells, TNF-α 100 pg/ml, 24 hrs at 37° C., secreted alkaline phosphatase (QUANTI-Blue, 620 nm). As to the method:
TNF-α Induced HEK Bluet Cellular Assay
Test articles were diluted in DMSO and serially diluted into 384 well assay plate (Corning 3765), at final concentrations ranging from […] to 0.5 nM. HEK Blue™ TNFα reporter cells were added at a final density of 10,000 cell per well in assay media [DMEM (Gibco, cat #21063-029), 10% fetal bovine serum (ExcelBio, cat #FND500), 1% Penicillin-Streptomycin (Solarbio, cat #P1400-100]. TNF-α (R&D 210-TA-020/CF) was then added to the assay plate at a final concentration of 100 pg/ml. This plate was then incubated for 24 hrs at 37° C. and 5% CO2. Secreted alkaline phosphatase expression was then measured using QUANTI-Blue™ (Invivogen), according to manufacturer instructions and read on an Envision microplate reader at 620 nm.
Inhibition data for test compound over a range of concentration was plotted as percentage inhibition of the test compound (100%=maximum inhibition). IC50 values were determined after correcting for background [(sample read-mean of low control)/(mean of high control-mean of low control)] where by the low control is DMSO without stimulation and high control is DMSO with stimulation. The IC50 is defined as the concentration of test compound which produces 50% inhibition and was quantified using the 4 parameter logistic equation to fit the data.

pIC50: −log10 of the molar value.

Sequence of TNF-α (P01375 77-233 limits assumed): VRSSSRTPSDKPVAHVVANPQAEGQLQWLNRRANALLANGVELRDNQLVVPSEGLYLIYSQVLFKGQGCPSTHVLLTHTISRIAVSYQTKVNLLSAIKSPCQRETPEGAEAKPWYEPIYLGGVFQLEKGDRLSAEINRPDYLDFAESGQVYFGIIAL

In the case of `CC[C@@H](Nc1c(Cl)c(C)nc2cc(F)c(-c3ccc(P(C)(C)=O)nc3)nc12)c1ccccn1` [Example 84, 3-chloro-6-[6-(dimethylphosphoryl)pyridin-3-yl]-7-fluoro-2-methyl-N-[(1R)-1-(pyridin-2-yl)propyl]-1,5-naphthyridin-4-amine], the pIC50 – broadly, −log10 of the IC50, conventionally taken in molar units – was ≥ 6.00. Under `Cc1cn(-c2ccc(F)c([C@@H](C)Nc3c(Cl)c(C)nc4cc(F)c(-c5ccc(P(C)(C)=O)nc5)nc34)c2)cn1` [Example 66, 3-chloro-6-[6-(dimethylphosphoryl)pyridin-3-yl]-7-fluoro-N-[(1R)-1-[2-fluoro-5-(4-methylimidazol-1-yl)phenyl]ethyl]-2-methyl-1,5-naphthyridin-4-amine] stands ≥ 6.00; under `Cc1nc2cc(F)c(-c3ccc(P(C)(C)=O)nc3)nc2c(N[C@H](c2ccccc2F)C(F)F)c1Cl` [Example 26, (R)-(5-(7-chloro-8-((2,2-difluoro-1-(2-fluorophenyl)ethyl)amino)-3-fluoro-6-methyl-1,5-naphthyridin-2-yl)pyridin-2-yl)dimethylphosphine oxide], 5.00 to 6.00; under `Cc1nc2cc(F)c(-c3ccc(P(C)(C)=O)nc3)nc2c(N[C@H](C)c2cccc(Cl)c2)c1Cl` [Example 91, 3-chloro-N-[(1R)-1-(3-chlorophenyl)ethyl]-6-[6-(dimethylphosphoryl)pyridin-3-yl]-7-fluoro-2-methyl-1,5-naphthyridin-4-amine], ≥ 7.00.

Take `CC[C@@H](Nc1c(Cl)c(C)nc2cc(F)c(-c3ccc(P(C)(C)=O)nc3)nc12)c1ccccc1` [Example 79, 3-chloro-6-[6-(dimethylphosphoryl)pyridin-3-yl]-7-fluoro-2-methyl-N-[(1R)-1-phenylpropyl]-1,5-naphthyridin-4-amine]: the negative-log IC50 (pIC50) is ≥ 7.00. Under `CC[C@@H](Nc1c(Cl)c(C)nc2cc(F)c(-c3cnc(P(C)(C)=O)nc3)nc12)c1cc(C#N)ccc1F` [Example 9, 3-[(1R)-1-({3-chloro-6-[2-(dimethylphosphoryl)pyrimidin-5-yl]-7-fluoro-2-methyl-1,5-naphthyridin-4-yl}amino)propyl]-4-fluorobenzonitrile] stands ≥ 7.00; under `Cc1nc2cc(F)c(-c3ccc(P(C)(C)=O)cc3)nc2c(N[C@H](C)c2cc(C#N)ccc2F)c1Cl` [Example 3, 3-[(1R)-1-({3-chloro-6-[4-(dimethylphosphoryl)phenyl]-7-fluoro-2-methyl-1,5-naphthyridin-4-yl}amino)ethyl]-4-fluorobenzonitrile], ≥ 7.00. For the molecule `CC[C@H](Nc1c(Cl)c(C)nc2cc(F)c(-c3cnc(OCP(C)(C)=O)nc3)nc12)c1cccc(F)c1F` [Example 126, 3-chloro-N-[(1S)-1-(2,3-difluorophenyl)propyl]-6-{2-[(dimethylphosphoryl)methoxy]pyrimidin-5-yl}-7-fluoro-2-methyl-1,5-naphthyridin-4-amine], the pIC50 was ≥ 7.00.

Consider `Cc1nc2cc(F)c(-c3ccc(CP(C)(C)=O)nc3)nc2c(N[C@H](C)c2cc(C#N)ccc2F)c1Cl` [Example 39, (R)-3-(1-((3-chloro-6-(6-((dimethylphosphoryl)methyl)pyridin-3-yl)-7-fluoro-2-methyl-1,5-naphthyridin-4-yl)amino)ethyl)-4-fluorobenzonitrile], for which the negative-log IC50 (pIC50) is ≥ 6.00. Under `Cc1cc(P(C)(C)=O)ncc1-c1nc2c(N[C@H](C)c3ccccc3F)c(Cl)c(C)nc2cc1F` [Example 62, 3-chloro-6-[6-(dimethylphosphoryl)-4-methylpyridin-3-yl]-7-fluoro-N-[(1R)-1-(2-fluorophenyl)ethyl]-2-methyl-1,5-naphthyridin-4-amine] stands ≥ 6.00; under `Cc1nc2cc(F)c(-c3ccc(P(C)(C)=O)nc3)cc2c(N[C@H](C)c2cccc(F)c2F)c1Cl` [Example 67, 3-chloro-N-[(1R)-1-(2,3-difluorophenyl)ethyl]-6-[6-(dimethylphosphoryl)pyridin-3-yl]-7-fluoro-2-methylquinolin-4-amine], ≥ 7.00.
